Among the data in patent publication US20240382483A1, “HETEROCYCLIC EGFR INHIBITORS FOR USE IN THE TREATMENT OF CANCER” (Blueprint Medicines Corporation, priority 2021, published 2024) are IC50 values, retold here.

Broadly, the IC50 is the midpoint of a concentration-inhibition curve.

In test [1] the target is T1, EGFR (L858R T790M C797S) (Homo sapiens, UniProt P00533, C797S/L858R/T790M).
T1 construct: purchased SignalChem E10-122VG
Kind of test: Biochemical EGFR inhibition assay (Caliper mobility shift), EGFR LRTMCS. In outline: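 Kinase reactions proceed at 25° C. to 10%–20% conversion of total peptide, are terminated with 35 mM EDTA, and the phosphopeptide is resolved from substrate by electrophoretic mobility shift. Apparent IC50 values come from plotting percent activity against log compound concentration.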

In test [2] the target is T2, intracellular phosphorylation of EGFR in NCI-H1975 cell line that harbors the EGFR L858R T790M mutations (Homo sapiens, UniProt P00533, L858R/T790M).
T2 construct: NCI-H1975 cell line that harbors the EGFR L858R T790M mutations (ATCC, CRL-5908); host or cells: NCI-H1975
In words: NCI-H1975 pEGFR AlphaLISA assay. In kind it is cell-based. To be noted: NCI-H1975 cells (EGFR L858R T790M), p-EGFR (Tyr1068), 4-5 hours incubation. Here is the method:
On the next day, the test compounds and DMSO control were added into H1975 cell plate followed by incubation at 37C/5% CO2 for 4-5 hours. […] Then 5 μL of a donor bead mix was added to each well followed by overnight incubation at room temperature in dark. On the next day, the plate was read at a compatible plate reader to obtain pEGFR signal. Percent of pEGFR inhibition was plotted against log concentration of compounds to generate IC50 values.
A general note: Bead proximity is the source of the signal in Alpha formats.

Where [3] appears, read: LRTMCS (PH) IC50 (nM) @ 1 mM ATP (Num), EGFR LRTMCS mutant.
The mark [4] stands for this setting: read-out: Ext pEGFR H1975 GMean IC50 (nM) Protocol: @Pharmaron AlphaLISA (Num).

Where two headings read alike, the source gives them in different places.

T1 sequence (P00533 25-1210 T790M/C797S/L858R): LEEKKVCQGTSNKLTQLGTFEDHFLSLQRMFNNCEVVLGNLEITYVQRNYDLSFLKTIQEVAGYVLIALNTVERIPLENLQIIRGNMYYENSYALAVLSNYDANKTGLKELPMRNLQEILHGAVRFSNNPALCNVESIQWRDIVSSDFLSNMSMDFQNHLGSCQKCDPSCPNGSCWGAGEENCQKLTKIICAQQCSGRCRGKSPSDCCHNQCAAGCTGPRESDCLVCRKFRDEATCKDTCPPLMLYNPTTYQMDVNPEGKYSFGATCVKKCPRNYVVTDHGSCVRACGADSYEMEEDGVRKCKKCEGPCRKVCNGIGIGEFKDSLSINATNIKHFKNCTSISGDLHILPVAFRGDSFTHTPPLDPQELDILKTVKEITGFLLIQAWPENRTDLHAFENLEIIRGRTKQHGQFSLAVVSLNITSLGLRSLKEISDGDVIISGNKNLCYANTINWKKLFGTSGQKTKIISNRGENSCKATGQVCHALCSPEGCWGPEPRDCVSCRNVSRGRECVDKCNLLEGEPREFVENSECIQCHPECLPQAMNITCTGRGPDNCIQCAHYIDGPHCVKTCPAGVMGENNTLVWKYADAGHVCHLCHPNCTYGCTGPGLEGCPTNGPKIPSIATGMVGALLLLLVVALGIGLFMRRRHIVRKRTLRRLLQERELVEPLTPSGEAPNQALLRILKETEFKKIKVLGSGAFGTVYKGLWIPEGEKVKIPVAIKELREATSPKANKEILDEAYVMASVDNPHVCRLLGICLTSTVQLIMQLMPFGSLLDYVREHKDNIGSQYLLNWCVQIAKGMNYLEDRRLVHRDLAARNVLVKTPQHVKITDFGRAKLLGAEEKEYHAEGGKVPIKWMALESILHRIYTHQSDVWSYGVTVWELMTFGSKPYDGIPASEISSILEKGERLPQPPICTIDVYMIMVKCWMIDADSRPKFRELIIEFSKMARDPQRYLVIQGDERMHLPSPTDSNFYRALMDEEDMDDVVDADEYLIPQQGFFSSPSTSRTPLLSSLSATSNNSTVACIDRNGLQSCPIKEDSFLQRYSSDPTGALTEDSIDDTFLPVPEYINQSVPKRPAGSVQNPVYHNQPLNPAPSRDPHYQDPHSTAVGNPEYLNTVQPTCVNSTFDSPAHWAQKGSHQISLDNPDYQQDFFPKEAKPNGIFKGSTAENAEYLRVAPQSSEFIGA
T2 sequence (P00533 25-1210 T790M/L858R): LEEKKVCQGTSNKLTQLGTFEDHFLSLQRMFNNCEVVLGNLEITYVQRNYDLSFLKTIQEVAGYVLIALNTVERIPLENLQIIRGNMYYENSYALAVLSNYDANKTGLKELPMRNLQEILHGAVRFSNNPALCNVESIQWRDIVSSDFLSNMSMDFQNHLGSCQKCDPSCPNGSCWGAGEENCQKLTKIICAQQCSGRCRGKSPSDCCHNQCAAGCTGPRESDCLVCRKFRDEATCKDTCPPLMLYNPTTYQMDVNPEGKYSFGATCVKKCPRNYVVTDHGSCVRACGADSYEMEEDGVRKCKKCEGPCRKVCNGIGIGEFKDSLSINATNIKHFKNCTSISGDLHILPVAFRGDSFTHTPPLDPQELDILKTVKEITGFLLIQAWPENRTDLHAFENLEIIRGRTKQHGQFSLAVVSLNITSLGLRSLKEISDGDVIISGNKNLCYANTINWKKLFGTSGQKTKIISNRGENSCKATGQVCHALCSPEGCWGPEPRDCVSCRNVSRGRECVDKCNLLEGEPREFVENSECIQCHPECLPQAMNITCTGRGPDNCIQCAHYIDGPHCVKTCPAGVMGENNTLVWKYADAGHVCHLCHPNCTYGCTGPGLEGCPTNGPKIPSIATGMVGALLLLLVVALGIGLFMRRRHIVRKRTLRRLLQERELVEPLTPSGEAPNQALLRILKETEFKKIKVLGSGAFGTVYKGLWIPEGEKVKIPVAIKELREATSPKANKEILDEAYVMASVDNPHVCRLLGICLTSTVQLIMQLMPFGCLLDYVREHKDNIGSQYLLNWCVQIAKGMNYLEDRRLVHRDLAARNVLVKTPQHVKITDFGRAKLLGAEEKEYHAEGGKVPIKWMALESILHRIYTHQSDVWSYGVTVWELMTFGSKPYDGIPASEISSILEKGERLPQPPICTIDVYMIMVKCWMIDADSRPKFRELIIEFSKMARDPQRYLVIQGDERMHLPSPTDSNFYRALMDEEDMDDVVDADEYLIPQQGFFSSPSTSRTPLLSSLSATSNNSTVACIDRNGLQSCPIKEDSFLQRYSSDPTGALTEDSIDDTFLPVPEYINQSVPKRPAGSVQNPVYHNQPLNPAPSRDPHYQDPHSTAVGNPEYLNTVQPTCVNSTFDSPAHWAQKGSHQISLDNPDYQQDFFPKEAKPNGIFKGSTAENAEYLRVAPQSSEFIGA

Take `CC(C)c1cnc(N2CC[C@H]2C(F)F)c2cnc(Nc3ccnc(N4CC[C@@H](O)[C@@](C)(F)C4)n3)cc12` (single isomer, unassigned) [Example 204, (3S,4R)-1-(4-((8-((S)-2-(difluoromethyl)azetidin-1-yl)-5-isopropyl-2,7-naphthyridin-3-yl)amino)pyrimidin-2-yl)-3-fluoro-3-methylpiperidin-4-ol or (3S,4R)-1-(4-((8-((R)-2-(difluoromethyl)azetidin-1-yl)-5-isopropyl-2,7-naphthyridin-3-yl)amino)pyrimidin-2-yl)-3-fluoro-3-methylpiperidin-4-ol]: the figures for the IC50 in test [1] (setting [3]) and in test [2] (setting [4]) were less than 15 nM and 10 to 20 nM, respectively.

For `CC(C)c1ccc(N2CC(c3nncn3C)C2)c2cnc(Nc3ccnc(N4CC[C@@H](O)[C@@](C)(F)C4)n3)cc12` [Example 112, (3S,4R)-3-fluoro-1-(4-((5-isopropyl-8-(3-(4-methyl-4H-1,2,4-triazol-3-yl)azetidin-1-yl)isoquinolin-3-yl)amino)pyrimidin-2-yl)-3-methylpiperidin-4-ol], the IC50 in test [1] (setting [3]) was less than 15 nM; in test [2] (setting [4]) it was 10 to 20 nM.

On to `CC(C)c1cnc(N2Cc3cnn(C)c3C2)c2cnc(Nc3ccnc(N4CC[C@@H](O)[C@@](C)(F)C4)n3)cc12` [Example 90, (3S,4R)-3-fluoro-1-(4-((5-isopropyl-8-(1-methyl-4,6-dihydropyrrolo[3,4-c]pyrazol-5(1H)-yl)-2,7-naphthyridin-3-yl)amino)pyrimidin-2-yl)-3-methylpiperidin-4-ol], for which the IC50 in test [1] (setting [3]) is less than 15 nM; in test [2] (setting [4]), 30 to 50 nM.

As to `CC(C)c1cnc(N2CC[C@@H](CS(C)(=O)=O)C2)c2cnc(Nc3ccnc(N4CC[C@@H](O)[C@@](C)(F)C4)n3)cc12` (single isomer, unassigned) [Example 208, (3S,4R)-3-fluoro-1-(4-((5-isopropyl-8-((R)-3-((methylsulfonyl)methyl)pyrrolidin-1-yl)-2,7-naphthyridin-3-yl)amino)pyrimidin-2-yl)-3-methylpiperidin-4-ol or (3S,4R)-3-fluoro-1-(4-((5-isopropyl-8-((S)-3-((methylsulfonyl)methyl)pyrrolidin-1-yl)-2,7-naphthyridin-3-yl)amino)pyrimidin-2-yl)-3-methylpiperidin-4-ol], the IC50 in test [1] (read-out: LRTMCS (PH) IC50 (nM) @ 1 mM ATP (Num), EGFR LRTMCS mutant) was less than 15 nM; in test [2] (setting [4]) it was 10 to 20 nM.

In the case of `CC(C)c1cnc(N2CC(O)C2)c2cnc(Nc3ccnc(N4CC[C@@]5(CCO5)C(F)(F)C4)n3)cc12` (single isomer, unassigned) [Example 146, (R)-1-(6-((2-(5,5-difluoro-1-oxa-7-azaspiro[3.5]nonan-7-yl)pyrimidin-4-yl)amino)-4-isopropyl-2,7-naphthyridin-1-yl)azetidin-3-ol or (S)-1-(6-((2-(5,5-difluoro-1-oxa-7-azaspiro[3.5]nonan-7-yl)pyrimidin-4-yl)amino)-4-isopropyl-2,7-naphthyridin-1-yl)azetidin-3-ol], the IC50 in test [1] (setting [3]) is less than 15 nM; in test [2] (setting [4]), 30 to 50 nM.

As for `CC(C)c1cnc(N2CC[C@H]2C)c2cnc(Nc3ccnc(N4CC[C@H](OCCO)[C@H](F)C4)n3)cc12` [Example 141, 2-(((3R,4S)-3-fluoro-1-(4-((5-isopropyl-8-((R)-2-methylazetidin-1-yl)-2,7-naphthyridin-3-yl)amino)pyrimidin-2-yl)piperidin-4-yl)oxy)ethan-1-ol], the IC50 in test [1] (setting [3]) was less than 15 nM; in test [2] (setting [4]), less than 10 nM.

In the case of `CC(C)c1cnc(N2CC(CNS(C)(=O)=O)C2)c2cnc(Nc3ccnc(N4CC[C@@H](O)[C@@](C)(F)C4)n3)cc12` [Example 83, N-((1-(6-((2-((3S,4R)-3-fluoro-4-hydroxy-3-methylpiperidin-1-yl)pyrimidin-4-yl)amino)-4-isopropyl-2,7-naphthyridin-1-yl)azetidin-3-yl)methyl)methanesulfonamide], the IC50 in test [1] (setting [3]) is less than 15 nM; in test [2] (setting [4]), 20 to 30 nM.

`CC(C)c1cnc(N2CCC[C@H]2CN(C)C)c2cnc(Nc3ccnc(N4CC[C@@H](O)[C@@](C)(F)C4)n3)cc12` [Example 115, (3S,4R)-1-(4-((8-((S)-2-((dimethylamino)methyl)pyrrolidin-1-yl)-5-isopropyl-2,7-naphthyridin-3-yl)amino)pyrimidin-2-yl)-3-fluoro-3-methylpiperidin-4-ol]: the IC50 was in the range of 30 to 100 nM in test [1] (setting [3]) and 30 to 50 nM in test [2] (setting [4]).

As for `CC(C)c1cnc(N2CC(C[S+]([O-])C(F)(F)F)C2)c2cnc(Nc3ccnc(N4CC[C@@H](O)[C@@](C)(F)C4)n3)cc12` (stereo partly drawn) [Example 100, (3S,4R)-3-fluoro-1-(4-((5-isopropyl-8-(3-(((trifluoromethyl)sulfinyl)methyl)azetidin-1-yl)-2,7-naphthyridin-3-yl)amino)pyrimidin-2-yl)-3-methylpiperidin-4-ol], the IC50 in test [1] (setting [3]) was less than 15 nM; in test [2] (setting [4]), 10 to 20 nM.

With `C[C@H](CO)c1ncc(N2CC[C@H]2C)c2cnc(Nc3ccnc(N4CC[C@@H](O)[C@@](C)(F)C4)n3)cc12` (single isomer, unassigned) [Example 178, (3S,4R)-3-fluoro-1-(4-((5-((S)-1-hydroxypropan-2-yl)-8-((R)-2-methylazetidin-1-yl)-2,6-naphthyridin-3-yl)amino)pyrimidin-2-yl)-3-methylpiperidin-4-ol or (3S,4R)-3-fluoro-1-(4-((5-((R)-1-hydroxypropan-2-yl)-8-((R)-2-methylazetidin-1-yl)-2,6-naphthyridin-3-yl)amino)pyrimidin-2-yl)-3-methylpiperidin-4-ol], the IC50 is 20 to 30 nM in test [1] (setting [3]) and more than 50 nM in test [2] (setting [4]).

Regarding `C[C@@H]1CCN1c1ncc(-c2cccnc2F)c2cc(Nc3ccnc(N4CC[C@@H](O)[C@@H](F)C4)n3)ncc12` (single isomer, unassigned) [Example 161, (3S,4R)-3-fluoro-1-(4-((5-(2-fluoropyridin-3-yl)-8-((R)-2-methylazetidin-1-yl)-2,7-naphthyridin-3-yl)amino)pyrimidin-2-yl)piperidin-4-ol or (3S,4R)-3-fluoro-1-(4-((5-(2-fluoropyridin-3-yl)-8-((S)-2-methylazetidin-1-yl)-2,7-naphthyridin-3-yl)amino)pyrimidin-2-yl)piperidin-4-ol], the IC50 is less than 15 nM in test [1] (setting [3]) and 30 to 50 nM in test [2] (Ext pEGFR H1975 GMean IC50 (nM) Protocol: @Pharmaron AlphaLISA (Num)).

In the case of `CO[C@@H]1CCN(c2nccc(Nc3cc4c(C(C)C)cnc(N5C[C@H](OCCN)[C@H]5C)c4cn3)n2)C[C@@H]1F` [Example 163, 8-((2R,3S)-3-(2-aminoethoxy)-2-methylazetidin-1-yl)-N-(2-((3S,4R)-3-fluoro-4-methoxypiperidin-1-yl)pyrimidin-4-yl)-5-isopropyl-2,7-naphthyridin-3-amine], the IC50 in test [1] (setting [3]) is less than 15 nM; in test [2] (setting [4]), 20 to 30 nM.

For the molecule `CC(C)c1cnc(N2CC(C)(O)C2)c2cnc(Nc3ccnc(N4CC[C@@H](O)[C@@](C)(F)C4)n3)cc12` [Example 50, (3S,4R)-3-fluoro-1-(4-((8-(3-hydroxy-3-methylazetidin-1-yl)-5-isopropyl-2,7-naphthyridin-3-yl)amino)pyrimidin-2-yl)-3-methylpiperidin-4-ol], the IC50 in test [1] (setting [3]) is 20 to 30 nM; in test [2] (setting [4]), more than 50 nM.

For the molecule `CNCCO[C@H]1CCN(c2nccc(Nc3cc4c(C(C)C)cnc(N5CC[C@H]5C)c4cn3)n2)C[C@H]1F` [Example 200, N-(2-((3R,4S)-3-fluoro-4-(2-(methylamino)ethoxy)piperidin-1-yl)pyrimidin-4-yl)-5-isopropyl-8-((R)-2-methylazetidin-1-yl)-2,7-naphthyridin-3-amine], the IC50 was less than 15 nM in test [1] (setting [3]) and less than 10 nM in test [2] (setting [4]).

With `CO[C@H]1CN(c2ncc([C@@H](C)CO)c3cc(Nc4ccnc(N5CC[C@@H](O)[C@@](C)(F)C5)n4)ncc23)[C@@H]1C` (single isomer, unassigned) [Example 212, (3S,4R)-3-fluoro-1-(4-((5-((R)-1-hydroxypropan-2-yl)-8-((2R,3S)-3-methoxy-2-methylazetidin-1-yl)-2,7-naphthyridin-3-yl)amino)pyrimidin-2-yl)-3-methylpiperidin-4-ol or (3S,4R)-3-fluoro-1-(4-((5-((S)-1-hydroxypropan-2-yl)-8-((2R,3S)-3-methoxy-2-methylazetidin-1-yl)-2,7-naphthyridin-3-yl)amino)pyrimidin-2-yl)-3-methylpiperidin-4-ol], the IC50 in test [1] (setting [3]) is less than 15 nM; in test [2] (setting [4]) it was 10 to 20 nM.

In the case of `[2H]C([2H])([2H])O[C@@H]1CCN(c2nccc(Nc3cc4c(C(C)C)cnc(N5C[C@H](O)[C@H]5C)c4cn3)n2)C[C@@H]1F` [Example 139, (2R,3S)-1-(6-((2-((3S,4R)-3-fluoro-4-(methoxy-d3)piperidin-1-yl)pyrimidin-4-yl)amino)-4-isopropyl-2,7-naphthyridin-1-yl)-2-methylazetidin-3-ol], the IC50 in test [1] (setting [3]) is less than 15 nM; in test [2] (setting [4]), less than 10 nM.
